Tested on: 695427-040-R-J1-PDC complex spheroid viability
Assay: Anticancer human tumor 695427-040-R-J1-PDC patient-derived colon adenocarcinoma cell line growth inhibition [POLQ]
Details: for IC50: curve of first compound; for viability, T/C: stronger effect = lower value; active = viability on the fitted dose curve at most 10% of control; inactive = the rest
How it was run: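 Complex spheroid viability model combining PDC tumour cells with endothelial (HUVEC) and MSC stromal cells. Novobiocin, ART-558 or RP6685 were tested singly and in combination with standard and investigational anticancer drugs. Each was titrated in half-log steps from near clinical Cmax, or from 10 microM where Cmax was unknown.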

[1] = second compound 0.0316 µM, first compound 0.0316 µM
[2] = second compound 0.0316 µM, first compound 0.1 µM
[3] = second compound 0.0316 µM, first compound 0.316 µM
[4] = second compound 0.0316 µM, first compound 1 µM
[5] = second compound 0.0316 µM, first compound 3.16 µM
[6] = second compound 0.0316 µM, first compound 10 µM
[7] = second compound 0.1 µM, first compound 0.0316 µM
[8] = second compound 0.1 µM, first compound 0.1 µM
[9] = second compound 0.1 µM, first compound 0.316 µM
[10] = second compound 0.1 µM, first compound 1 µM
[11] = second compound 0.1 µM, first compound 3.16 µM
[12] = second compound 0.1 µM, first compound 10 µM
[13] = second compound 0.316 µM, first compound 0.0316 µM
[14] = second compound 0.316 µM, first compound 0.1 µM
[15] = second compound 0.316 µM, first compound 0.316 µM
[16] = second compound 0.316 µM, first compound 1 µM
[17] = second compound 0.316 µM, first compound 3.16 µM
[18] = second compound 0.316 µM, first compound 10 µM
[19] = second compound 1 µM, first compound 0.0316 µM
[20] = second compound 1 µM, first compound 0.1 µM
[21] = second compound 1 µM, first compound 0.316 µM
[22] = second compound 1 µM, first compound 1 µM
[23] = second compound 1 µM, first compound 3.16 µM
[24] = second compound 1 µM, first compound 10 µM
[25] = second compound 3.16 µM, first compound 0.0316 µM
[26] = second compound 3.16 µM, first compound 0.1 µM
[27] = second compound 3.16 µM, first compound 0.316 µM
[28] = second compound 3.16 µM, first compound 1 µM
[29] = second compound 3.16 µM, first compound 3.16 µM
[30] = second compound 3.16 µM, first compound 10 µM
[31] = second compound 10 µM, first compound 0.0316 µM
[32] = second compound 10 µM, first compound 0.1 µM
[33] = second compound 10 µM, first compound 0.316 µM
[34] = second compound 10 µM, first compound 1 µM
[35] = second compound 10 µM, first compound 3.16 µM
[36] = second compound 10 µM, first compound 10 µM
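Also: spheroids exposed to compounds for seven days.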
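For viability, T/C in this document: 100% = DMSO vehicle control viability.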

COc1cc(C2c3cc4c(cc3C(OC3OC5COC(C)OC5C(O)C3O)C3COC(=O)C23)OCO4)cc(OC)c1O (centres undefined) + COC1C(OC(N)=O)C(O)C(Oc2ccc3c(O)c(NC(=O)c4ccc(O)c(CC=C(C)C)c4)c(=O)oc3c2C)OC1(C)C
inactive: viability, T/C [1] 96.7% | viability, T/C [2] 92.3% | viability, T/C [3] 98.8% | viability, T/C [4] 96.2% | viability, T/C [5] 98.4% | viability, T/C [6] 82.4% | viability, T/C [7] 101% | viability, T/C [8] 93.4% | viability, T/C [9] 101% | viability, T/C [10] 93.8% | viability, T/C [11] 99.5% | viability, T/C [12] 83.6% | viability, T/C [13] 104% | viability, T/C [14] 92.3% | viability, T/C [15] 94.7% | viability, T/C [16] 97% | viability, T/C [17] 95.3% | viability, T/C [18] 80.6% | viability, T/C [19] 107% | viability, T/C [20] 98.5% | viability, T/C [21] 112% | viability, T/C [22] 100% | viability, T/C [23] 96.4% | viability, T/C [24] 83.7% | viability, T/C [25] 99.4% | viability, T/C [26] 98.3% | viability, T/C [27] 101% | viability, T/C [28] 101% | viability, T/C [29] 98.9% | viability, T/C [30] 82.8% | viability, T/C [31] 94.5% | viability, T/C [32] 95.2% | viability, T/C [33] 95.3% | viability, T/C [34] 99.9% | viability, T/C [35] 103% | viability, T/C [36] 83.2%
> 10 µM: IC50 (second compound 0.0316 µM) | IC50 (second compound 0.1 µM) | IC50 (second compound 0.316 µM) | IC50 (second compound 1 µM) | IC50 (second compound 3.16 µM) | IC50 (second compound 10 µM)

C=CC(=O)N1CCN(c2nc(=O)n(-c3c(C)ccnc3C(C)C)c3nc(-c4c(O)cccc4F)c(F)cc23)C(C)C1 (centres undefined) + Nc1ccc(C#CCN(C(=O)Cc2ncc(C(F)(F)F)cc2C(F)(F)F)c2ccc(F)cc2)nn1
> 10 µM: IC50 (second compound 0.0316 µM) | IC50 (second compound 0.1 µM) | IC50 (second compound 0.316 µM) | IC50 (second compound 1 µM) | IC50 (second compound 3.16 µM) | IC50 (second compound 10 µM)
inactive: viability, T/C [1] 108% | viability, T/C [2] 104% | viability, T/C [3] 110% | viability, T/C [4] 111% | viability, T/C [5] 110% | viability, T/C [6] 104% | viability, T/C [7] 108% | viability, T/C [8] 110% | viability, T/C [9] 107% | viability, T/C [10] 92.2% | viability, T/C [11] 104% | viability, T/C [12] 113% | viability, T/C [13] 116% | viability, T/C [14] 107% | viability, T/C [15] 102% | viability, T/C [16] 105% | viability, T/C [17] 120% | viability, T/C [18] 95.3% | viability, T/C [19] 102% | viability, T/C [20] 95.2% | viability, T/C [21] 97.9% | viability, T/C [22] 101% | viability, T/C [23] 107% | viability, T/C [24] 96.9% | viability, T/C [25] 105% | viability, T/C [26] 101% | viability, T/C [27] 104% | viability, T/C [28] 97.3% | viability, T/C [29] 107% | viability, T/C [30] 98.3% | viability, T/C [31] 97.2% | viability, T/C [32] 84.4% | viability, T/C [33] 102% | viability, T/C [34] 96.3% | viability, T/C [35] 121% | viability, T/C [36] 97.6%

From PubChem BioAssay AID1963840 (Molecular Pharmacology Branch, DTP, NCI, 2024)
